Laboratory results taken from patent publication US10662193B2, “Carbazole and carboline compounds for use in the diagnosis, treatment, alleviation or prevention of disorders associated with amyloid or amyloid-like proteins” (AC IMMUNE SA, priority 2014, dated 2020).

Biological target: Tau enriched paired helical filaments (PHF) from human Alzheimer's disease (AD) brains (Homo sapiens, UniProt P10636)
Assay: Assay 3: backscattering interferometry, dissociation constants (Kd)
Format: binding
Settings: PHF batch 6 (pooled frontal cortex, 25 AD patients); read-out: [Kd] on PHF batch 6
Source text: Assay 3 (Backscattering Interferometry):
Determination of Dissociation Constants (Kd) of Compounds of this Invention
Enrichment of Paired Helical Filaments (PHF's) from Human Alzheimer's Disease Brains
For backscattering interferometry, Tau enriched paired helical filaments (PHF) from human Alzheimer's disease (AD) brains were used as a target. Due to the limited availability of tissues, to determine dissociation constants (Kd) of compounds of this invention to the target, two different batches of enriched PHF were used. These batches are identified as batch 6 and 7 and were prepared as follows.
PHF batch number 6 was prepared starting from 25 g frontal cortical tissue from post-mortem brains of 25 Alzheimer's disease (AD) patients which were obtained from the London Tissue Bank. The mean age at death for the AD patients was 76 years (48% females). Brain samples were characterized for Braak disease stage (Braak and Braak, 1991), with most donors displaying a stage VI. The postmortem interval between death and brain dissection was between 6 and 65 h. Human brain homogenates were prepared by SB Drug Discovery (Glasgow, Scotland, UK) from the post-mortem cortical tissue of the 25 patients). Each tissue (1 g) was homogenized with a Dounce glass homogenizer in 1.5 mL 100 mM 2-(N-morpholino) ethane-sulfonic acid (MES) pH 6.8, 0.75 M NaCl, 1 mM EGTA, 0.5 mM MgSO4, 2 mM DTT containing protease inhibitors (Complete; Roche 11697498001). For each sample, two aliquots containing 0.5 g brain homogenates in 0.75 mL were shipped to AC Immune SA on dry ice and stored at −80° C. For the enrichment of PHF, 1 aliquot per donor corresponding to total 12.5 g of brain tissue were thawed on ice and then incubated at 4° C. for 20 min to depolymerize any residual microtubules. All samples were then pooled and transferred to three polycarbonate centrifuge bottles (16×76 mm; Beckman 355603).
PHF batch number 7 was prepared starting from 32 g of parietal cortex tissue from post-mortem brain of one Alzheimer's disease (AD) patient was obtained from an external provider (Tissue Solution). The patient was a person who died for end stage AD. The brain sample was collected 5 h post-mortem and characterized for Braak disease stage (Braak and Braak, 1991) as stage VI. The method used for the PHF enrichment was modified from published procedures (Jicha et al., 1997; Rostagno and Ghiso, 2009). Around 16 g of the AD human brain was thawed on ice and homogenized with 50 ml of homogenization buffer [0.75 M NaCl in RAB buffer (100 mM 2-(N-morpholino) ethanesulfonic acid (MES), 1 mM EGTA, 0.5 mM MgSO4, 2 mM DTT, pH 6.8) supplemented with protease inhibitors (Complete; Roche 11697498001)] in a glass Dounce homogenizer. The homogenate was then incubated at 4° C. for 20 min to let depolymerize any residual microtubules, before being transferred into polycarbonate centrifuge bottles (16×76 mm; Beckman 355603). For both purifications, brain homogenates were then centrifuged at 11,000 g (12,700 RPM) in an ultracentrifuge (Beckman, XL100K) for 20 min at 4° C. using the pre-cooled 70.1 rotor (Beckman, 342184). Pellets were kept on ice. Supernatants were pooled into polycarbonate bottles and centrifuged again at 100,000 g (38,000 RPM) for 1 h at 4° C. in the 70.1 Ti rotor to isolate PHF-rich pellets, whereas soluble Tau remained in the supernatants. The pellets from the first and second centrifugations were resuspended in 120 mL of extraction buffer [10 mM Tris-HCl pH 7.4, 10% sucrose, 0.85 M NaCl, 1% protease inhibitor (Calbiochem 539131), 1 mM EGTA, 1% phosphatase inhibitor (Sigma P5726 and P0044)]. The solution was then transferred into polycarbonate centrifuge bottles (16×76 mm; Beckman 355603) and centrifuged at 15,000 g (14,800 RPM) in an ultracentrifuge (Beckman, XL100K) for 20 min at 4° C. using the 70.1 Ti rotor. […]

Tau enriched paired helical filaments (PHF) from human Alzheimer's disease (AD) brains, sequence (P10636 623-708 limits assumed): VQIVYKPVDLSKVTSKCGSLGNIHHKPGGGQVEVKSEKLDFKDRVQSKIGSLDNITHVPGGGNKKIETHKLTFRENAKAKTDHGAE

Kd [nM] | SMILES
33 ± 5 | Cn1c2ccncc2c2ccc(Nc3ccc(F)c(F)c3)nc21 [Example 2]
19 ± 3 | Cn1c2ccncc2c2ccc(Nc3cccc(OCCF)c3)nc21 [Example 8]
